Measurements reported in patent US9115129B2, “Substituted pyrido[2,3-B]pyrazines as IP receptor agonists” (Novartis AG, priority 2012, dated 2015).

Molecular target: T1, IP receptor (Homo sapiens, UniProt P43119)
T1 construct: expressed in transfected cells; host or cells: CHO cells stably expressing the IP receptor (CHO-IP)
Assay: cAMP accumulation in CHO cells stably expressing the IP receptor (CHO-IP), Perkin Elmer AlphaScreen assay
Type: cell-based
Conditions: agonist activity, 1 hour at room temperature
Method: Activity of compounds at the IP receptor (IP receptor) is assessed by measuring cAMP accumulation in CHO cells stably expressing the IP receptor (CHO-IP) using the Perkin Elmer AlphaScreen assay. This technology measures the endogenous production of cAMP, in a non-radioactive luminescence proximity homogenous assay. A biological reaction occurs between streptavidin coated donor beads, biotinylated cAMP and anti-cAMP acceptor beads, bringing the donor and acceptor beads close enough together so that upon excitation a fluorescence signal is produced. On production of endogenous cAMP, competition between the biotinylated cAMP and cellular-derived cAMP causes a reduction in the fluorescent signal. The reduction in signal is proportional to the amount of cAMP being produced, thus it is possible to quantify the amount of cAMP being produced on stimulation with agonist.
Test and reference compounds are prepared at 100× [final] in 100% DMSO, and diluted 1:3 using a Biomek Fx (Beckman Coulter). This is followed by an intermediate dilution to give 5× [final] in assay buffer (HBSS containing 5 mM HEPES, 0.1% (w/v) BSA). 5 μL of 5× [final] test compounds, reference compounds and buffer/DMSO control are then transferred to a 384-well white OptiPlate, containing 20 μL CHO-IP cell suspension (15,000 cells/well, prepared from frozen), and plate is incubated at room temperature for 1 hour. A cAMP standard curve is constructed for each experiment (concentration range of 10000 nM to 0.001 nM, in assay buffer) and 25 μL of each concentration added to the last two columns of the assay plate. The incubation is terminated by the addition of lysis buffer (dH2O; 0.3% (v v^−1) Tween-20) containing 20 units mL^−1 streptavidin coated donor beads and biotinylated cAMP (pre-incubated for 30 minutes) and 20 units mL^−1 anti-cAMP acceptor beads, which are added to the lysis buffer just before addition to the assay plate. The assay plate is then incubated at room temperature in the dark, for 60 minutes with gentle shaking, and read on the Envision plate reader (Perkin Elmer).
The raw data of the reference compounds, test compounds and controls are converted into cAMP concentrations, using the cAMP standard curve, in Graph Pad Prism (Graph Pad Software Inc). EC50 as well as maximal values of the agonist curves are determined using a 4-parameter logistic equation. The % maximum response values of all test compounds are determined using the top of the treprostinil concentration-response curve.

T1 sequence (P43119 whole entry): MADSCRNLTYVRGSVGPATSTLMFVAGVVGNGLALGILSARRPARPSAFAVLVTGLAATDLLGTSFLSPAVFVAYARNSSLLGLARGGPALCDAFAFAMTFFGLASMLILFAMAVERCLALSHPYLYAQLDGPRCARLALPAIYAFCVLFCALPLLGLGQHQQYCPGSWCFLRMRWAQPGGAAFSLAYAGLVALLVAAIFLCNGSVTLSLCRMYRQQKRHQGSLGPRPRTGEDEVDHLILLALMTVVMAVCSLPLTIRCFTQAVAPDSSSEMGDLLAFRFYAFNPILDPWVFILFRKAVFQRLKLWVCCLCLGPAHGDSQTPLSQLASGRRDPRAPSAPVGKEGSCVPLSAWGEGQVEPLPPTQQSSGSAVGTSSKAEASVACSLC

| EC50 | SMILES |
| --- | --- |
| 0.0024 µM | Cc1ccc(-c2nc3c(nc2-c2ccccc2)CCC(C)N3CCCCCCC(=O)O)cc1 (centres unmarked) [Example 2.4, 7-(6-Methyl-2-phenyl-3-p-tolyl-7,8-dihydropyrido[2,3-b]pyrazin-5(6H)-yl)heptanoic acid] |
| 0.51 µM | Cc1ccc(-c2nc3c(nc2-c2ccc(C)cc2)N(CCCCCCC(=O)NS(=O)(=O)Cc2ccccc2)CCC3O)cc1 (single isomer, unassigned) [Example 13.2, (R)—N-(benzylsulfonyl)-7-(8-hydroxy-2,3-di-p-tolyl-7,8-dihydropyrido[3,2-b]pyrazin-5(6H)-yl)heptanamide or (S)—N-(benzylsulfonyl)-7-(8-hydroxy-2,3-di-p-tolyl-7,8-dihydropyrido[3,2-b]pyrazin-5(6H)-yl)heptanamide] |
